Columns and labels:
[1] = mechanically ventilated adult patients with moderate-to-severe ARDS, confirmed Covid-19 infection; cited from earlier work
primary HIV-1 isolated = test: HIV-1 replication in MT2 cell line assays; type: cell-based
Method: The total destruction of the viral culture was observed from concentrations of 25 μg/ml of TMA's Maslinic acid, while between 5 and 20 μg/ml, a decrease in viability was observed between 57% and 19%.

murine macrophages = settings: cited from earlier work
HIV-1 protease = HIV-1 protease (Human immunodeficiency virus type 1 group M subtype B, UniProt P04585); settings: in vitro; cited from earlier work
[2] = in vivo, cited from earlier work

Structure (SMILES)	effectiveness, share of cases [1] [%]	concentration giving total destruction of the viral culture (primary HIV-1 isolated) [µg/mL]	cytopathic effect (primary HIV-1 isolated; MT2 cell line, 25 μg/ml)	level of p24 antigen in the culture supernatant (primary HIV-1 isolated; MT2 cell line, 25 μg/ml)	cytopathic effect (primary HIV-1 isolated; MT2 cell line, 30 μg/ml)	p24 antigen (primary HIV-1 isolated; MT2 cell line, 30 μg/ml)	inhibitory effect on replication (primary HIV-1 isolated; between 5 and 20 μg/ml, cultures infected with different amounts of HIV-1)	pro-inflammatory cytokine generation (murine macrophages)	activity against the enzyme isolated from the HIV-1 protease (HIV-1 protease)	bioavailability (in vivo) [%]	bioavailability compared ([2]; human)	values in the biological fluids [2]
C[C@@H]1C[C@H]2[C@@H]3CCC4=CC(=O)C=C[C@]4(C)[C@@]3(F)[C@@H](O)C[C@]2(C)[C@@]1(O)C(=O)CO [Dexametasone]	33											
CC1(C)CC[C@]2(C(=O)O)CC[C@]3(C)C(=CC[C@@H]4[C@@]5(C)C[C@@H](O)[C@H](O)C(C)(C)[C@@H]5CC[C@]43C)[C@@H]2C1 [Maslinic acid, 2-alfa,3-betadihydroxy-28-carboxiolean-12-eno]		≥ 25	decrease was detected	decrease was detected	absence total cytopathic effect	decrease in p24 antigen	did not produce any inhibitory effect	strong reduction	has in vitro activity	60	higher than that of OA	increased in the biological fluids in a dose-dependent manner
CC1(C)CC[C@]2(C(=O)O)CC[C@]3(C)C(=CC[C@@H]4[C@@]5(C)CC[C@H](O)C(C)(C)[C@@H]5CC[C@]43C)[C@@H]2C1 [OA, Oleanolic acid]												increased in the biological fluids in a dose-dependent manner
